From US5556744A, “Methods and compositions for diagnosing and treating certain HIV infected patients” (The Trustees of the University of Pennsylvania, priority 1994, dated 1996)

System: maternal HIV+ sera (antibodies)
Test: RIA / ELISA binding of maternal HIV+ sera to gp120 and gp41 peptides (Example 3)
Parameters: species or system human
Protocol: Radioimmunoassay (RIA) and enzyme-linked immunosorbent assay (ELISA) were performed by standard methodologies [E. Engvall, Meth. Immunol., 70:419-439 (1980); S. K. Pierce et al, J. Exp. Med., 144:1254-1262 (1976)]. Peptides were dissolved in 0.05M carbonate-bicarbonate buffer (pH 9.6) at a concentration of 10 μg/ml. Fifty μl (500 ng) of the peptides were immobilized in 96 well polyvinylchloride plates (Dynatech Laboratories, Inc.) overnight at 4° C. Plates were washed and non-specific sites were blocked with PBS containing 1% BSA overnight at 4° C.
Dilutions of HIV positive maternal sera were made in blocking buffer at dilutions of 1:50 and 1:500 and incubated in peptide coated plates overnight at 4° C. Plates were washed with PBS and incubated with 75,000 cpm of ^125 I-labelled goat anti-human IgG. The antibody was iodinated by a chloramine T method [W. V. Williams et al, Proc. Natl. Acad. Sci. USA, 85:6488-6492 (1988)]. Plates were washed, dried and counted in a gamma counter to measure specific binding. Normal human serum (i.e., HIV seronegative) was used as a control.
Alternatively, ELISA assays were performed in polystyrene plates (Dynatech Laboratories, Inc) in which 0.05% Tween 20 (Sigma Chemical Co.) was included in the washing, blocking and dilution buffers. The secondary antibody used was goat […] Ig conjugated to horseradish peroxidase (HRP) (Sigma Chemical Co). The substrate used for color development was 3,3',5,5' tetramethyl-benzidine dihydrochloride (TMB) (Sigma Chemical Co). Absorbance of samples was measured in a Dynatech MR5000 (Dynatech Laboratories, Inc.) plate reader and expressed as an optical density at wavelength of 450 nm (OD450).
The following key is used for the designation of specific binding of the maternal sera samples to the peptides: The minus sign, -, is equivalent to the specific OD450 or cpm of sera sample binding to peptide divided by the specific OD450 or cpm of NHS sample binding to peptide, which value is less than 2. The plus sign, +, is equivalent to the specific OD450 or cpm of sera sample binding to peptide divided by the specific OD450 or cpm of NHS sample binding to peptide, which value is between 2 to 3.
Specific binding is defined as the difference between the OD450 or cpm of sera to wells with peptide and the OD450 or cpm of sera to wells without peptide.
Comparisons of number of peptides which bound maternal serum samples were made between the transmission group and the nontransmission group. The data was analyzed using the unpaired student's test. For the determination of differences in the binding of specific peptides between transmission and non-transmission groups, the Spearman's rank-order correlation test was performed.

[1] = Serum No. 1, Non-Transmission Group
[2] = Serum No. 2, Non-Transmission Group
[3] = Serum No. 3, Non-Transmission Group
[4] = Serum No. 4, Transmission Group
[5] = Serum No. 5, Transmission Group
[6] = Serum No. 6, Non-Transmission Group
[7] = Serum No. 7, Non-Transmission Group
[8] = Serum No. 8, Non-Transmission Group
[9] = Serum No. 9, Non-Transmission Group
[10] = Serum No. 10, Transmission Group
[11] = Serum No. 11, Non-Transmission Group
[12] = Serum No. 12, Non-Transmission Group
[13] = Serum No. 13, Transmission Group
[14] = Serum No. 14, Transmission Group
[15] = Serum No. 15, Transmission Group
[16] = Serum No. 16, Non-Transmission Group
[17] = Serum No. 17, Non-Transmission Group
[18] = Serum No. 18, Non-Transmission Group
[19] = Serum No. 19, Transmission Group
[20] = Serum No. 20, Non-Transmission Group

| Sequence | Binding of maternal HIV+ serum to peptide (sera/NHS ratio) [1] | Binding of maternal HIV+ serum to peptide (sera/NHS ratio) [2] | Binding of maternal HIV+ serum to peptide (sera/NHS ratio) [3] | Binding of maternal HIV+ serum to peptide (sera/NHS ratio) [4] | Binding of maternal HIV+ serum to peptide (sera/NHS ratio) [5] | Binding of maternal HIV+ serum to peptide (sera/NHS ratio) [6] | Binding of maternal HIV+ serum to peptide (sera/NHS ratio) [7] | Binding of maternal HIV+ serum to peptide (sera/NHS ratio) [8] | Binding of maternal HIV+ serum to peptide (sera/NHS ratio) [9] | Binding of maternal HIV+ serum to peptide (sera/NHS ratio) [10] | Binding of maternal HIV+ serum to peptide (sera/NHS ratio) [11] | Binding of maternal HIV+ serum to peptide (sera/NHS ratio) [12] | Binding of maternal HIV+ serum to peptide (sera/NHS ratio) [13] | Binding of maternal HIV+ serum to peptide (sera/NHS ratio) [14] | Binding of maternal HIV+ serum to peptide (sera/NHS ratio) [15] | Binding of maternal HIV+ serum to peptide (sera/NHS ratio) [16] | Binding of maternal HIV+ serum to peptide (sera/NHS ratio) [17] | Binding of maternal HIV+ serum to peptide (sera/NHS ratio) [18] | Binding of maternal HIV+ serum to peptide (sera/NHS ratio) [19] | Binding of maternal HIV+ serum to peptide (sera/NHS ratio) [20] | other results |
| --- | --- | --- | --- | --- | --- | --- | --- | --- | --- | --- | --- | --- | --- | --- | --- | --- | --- | --- | --- | --- | --- |
| KLICTTQVPWNASWS [Peptide 123] | + (which value is between 2 to 3) | - (specific OD450 or cpm of sera sample binding to peptide divided by the specific OD450 or cpm of NHS sample binding to peptide, which value is less than 2) | - (specific OD450 or cpm of sera sample binding to peptide divided by the specific OD450 or cpm of NHS sample binding to peptide, which value is less than 2) | - (specific OD450 or cpm of sera sample binding to peptide divided by the specific OD450 or cpm of NHS sample binding to peptide, which value is less than 2) | - (specific OD450 or cpm of sera sample binding to peptide divided by the specific OD450 or cpm of NHS sample binding to peptide, which value is less than 2) | - (specific OD450 or cpm of sera sample binding to peptide divided by the specific OD450 or cpm of NHS sample binding to peptide, which value is less than 2) | - (specific OD450 or cpm of sera sample binding to peptide divided by the specific OD450 or cpm of NHS sample binding to peptide, which value is less than 2) | - (specific OD450 or cpm of sera sample binding to peptide divided by the specific OD450 or cpm of NHS sample binding to peptide, which value is less than 2) | - (specific OD450 or cpm of sera sample binding to peptide divided by the specific OD450 or cpm of NHS sample binding to peptide, which value is less than 2) | - (specific OD450 or cpm of sera sample binding to peptide divided by the specific OD450 or cpm of NHS sample binding to peptide, which value is less than 2) | - (specific OD450 or cpm of sera sample binding to peptide divided by the specific OD450 or cpm of NHS sample binding to peptide, which value is less than 2) | - (specific OD450 or cpm of sera sample binding to peptide divided by the specific OD450 or cpm of NHS sample binding to peptide, which value is less than 2) | - (specific OD450 or cpm of sera sample binding to peptide divided by the specific OD450 or cpm of NHS sample binding to peptide, which value is less than 2) | - (specific OD450 or cpm of sera sample binding to peptide divided by the specific OD450 or cpm of NHS sample binding to peptide, which value is less than 2) | - (specific OD450 or cpm of sera sample binding to peptide divided by the specific OD450 or cpm of NHS sample binding to peptide, which value is less than 2) | - (specific OD450 or cpm of sera sample binding to peptide divided by the specific OD450 or cpm of NHS sample binding to peptide, which value is less than 2) | - (specific OD450 or cpm of sera sample binding to peptide divided by the specific OD450 or cpm of NHS sample binding to peptide, which value is less than 2) | - (specific OD450 or cpm of sera sample binding to peptide divided by the specific OD450 or cpm of NHS sample binding to peptide, which value is less than 2) | - (specific OD450 or cpm of sera sample binding to peptide divided by the specific OD450 or cpm of NHS sample binding to peptide, which value is less than 2) | - (specific OD450 or cpm of sera sample binding to peptide divided by the specific OD450 or cpm of NHS sample binding to peptide, which value is less than 2) |  |
| KQFINMWQEVGKAMYAPP [Peptide B138] | + (which value is between 2 to 3) | + (which value is between 2 to 3) | - (specific OD450 or cpm of sera sample binding to peptide divided by the specific OD450 or cpm of NHS sample binding to peptide, which value is less than 2) | + (which value is between 2 to 3) | + (which value is between 2 to 3) | + (which value is between 2 to 3) | ++ (which value is greater than 3) | ++ (which value is greater than 3) | - (specific OD450 or cpm of sera sample binding to peptide divided by the specific OD450 or cpm of NHS sample binding to peptide, which value is less than 2) | - (specific OD450 or cpm of sera sample binding to peptide divided by the specific OD450 or cpm of NHS sample binding to peptide, which value is less than 2) | - (specific OD450 or cpm of sera sample binding to peptide divided by the specific OD450 or cpm of NHS sample binding to peptide, which value is less than 2) | - (specific OD450 or cpm of sera sample binding to peptide divided by the specific OD450 or cpm of NHS sample binding to peptide, which value is less than 2) | - (specific OD450 or cpm of sera sample binding to peptide divided by the specific OD450 or cpm of NHS sample binding to peptide, which value is less than 2) | - (specific OD450 or cpm of sera sample binding to peptide divided by the specific OD450 or cpm of NHS sample binding to peptide, which value is less than 2) | - (specific OD450 or cpm of sera sample binding to peptide divided by the specific OD450 or cpm of NHS sample binding to peptide, which value is less than 2) | - (specific OD450 or cpm of sera sample binding to peptide divided by the specific OD450 or cpm of NHS sample binding to peptide, which value is less than 2) | - (specific OD450 or cpm of sera sample binding to peptide divided by the specific OD450 or cpm of NHS sample binding to peptide, which value is less than 2) | - (specific OD450 or cpm of sera sample binding to peptide divided by the specific OD450 or cpm of NHS sample binding to peptide, which value is less than 2) | - (specific OD450 or cpm of sera sample binding to peptide divided by the specific OD450 or cpm of NHS sample binding to peptide, which value is less than 2) | - (specific OD450 or cpm of sera sample binding to peptide divided by the specific OD450 or cpm of NHS sample binding to peptide, which value is less than 2) | Number of maternal sera binding to peptide (20 maternal sera): Seven; Number of binding maternal sera from the transmission group (vertical transmission group (7 sera)): two |
